Assay results: patent US20230341403A1, “METHODS AND KITS FOR THE DIAGNOSIS OF LUNG CANCER” (priority 2020, published 2023)

System: A549 cells transfected with the LARGE portion of the isoform 4 (PC4-5)
Experiment: Cell proliferation by CFSE and flow cytometry in transfected A549 cells
Assay type: cell-based, human
Settings: FIG. 6B; for tumour growth / cancer proliferation in the cells transfected with the "large" subunit of the isoform 4: concentration not stated at this place
Protocol: Transfections. A549 cells, lung adenocarcinoma, were transfected by means of marketable kits for 72 hours in transient way with the plasmid vectors: 1. PC4-1, miming the whole isoform 1 of the caspase-4; 2. PC4-2, miming CARD+LARGE subunit; 3. PC4-3, miming LARGE+SMALL subunit of the isoform 1; 4. PC4-4, miming LARGE subunit of the isoform 1 and 5. PC4-5, miming LARGE subunit of the isoform 4 of the caspase-4. The cell proliferation was evaluated through method of CFSE (1 μM), analysed by means of flow cytometry. In some experiments, the transfected cells marked with CFSE, were subjected to treatment with two leader compounds (compound 5: COMP-5; compound 6: COMP-6).
In order to understand the role of the isoform 4 in the cancer growth, the A549 cells, cells of lung adenocarcinoma, were transfected with specific vectors, containing specific portions of the isoform 1 and isoform 4 as described in FIG. 6A. It was observed that the isoform 4 and 1 are both capable of promoting cancer proliferation when the LARGE subunit is expressed with respect to the other considered structures (FIG. 6A). At last, the cells transfected with the large subunit of the isoform 1 (PC4-4) and 4 (PC4-5) were treated with leading compound with the purpose of verifying a cancer growth decrease.

## Ac-VVDC-NH2 [compound 6]
Compound at 10 nM, A549 transfected with PC4-5, CFSE flow cytometry
  cancer growth of the A549 cells transfected with the LARGE portion of the isoform 4: capable of reducing significantly the cancer growth
  tumour growth / cancer proliferation in the cells transfected with the "large" subunit of the isoform 4: can be inhibited
Listed as Ac-VVDC-NH2
  tumour growth / cancer proliferation in the cells transfected with the "large" subunit of the isoform 4: significant decrease in the tumour growth
